These results are taken from patent US20110034507A1, “FARNESOID X RECEPTOR AGONISTS” (SMITHKLINE BEECHAM CORPORATION, priority 2007, published 2011).

Experiment [1] relates to rodent models of hepatic fibrosis. The settings on record: multiple rodent models; cited from earlier work.
Experiment [2] relates to hepatic stellate cells (HSC). The note with it: cultured HSCs; cited from earlier work.
For experiment [3], the target named is T1, Human FXRα Ligand Binding Domain (Homo sapiens, UniProt Q96RI1).
T1 construct: polyhistidine (pRSET-A vector leader) (N); made in house; host or cells: E. coli BL21 (DE3), pRSET-A vector
T1 sequence (Q96RI1 237-472 isoform Q96RI1-2): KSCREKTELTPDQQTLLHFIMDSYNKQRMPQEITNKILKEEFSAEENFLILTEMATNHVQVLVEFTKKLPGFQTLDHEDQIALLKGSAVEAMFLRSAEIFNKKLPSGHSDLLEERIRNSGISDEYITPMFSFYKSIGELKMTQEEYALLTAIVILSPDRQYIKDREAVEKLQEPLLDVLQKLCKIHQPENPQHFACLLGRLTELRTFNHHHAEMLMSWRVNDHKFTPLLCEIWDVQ
Put plainly: FXR Cofactor Binding Assay (ligand mediated SRC-1 cofactor peptide interaction, time resolved fluorescence). It counts as biochemical. The settings on record: FXRα LBD / SRC-1 (LCD2, 676-700) peptide, TRF; read-out: Activity (pEC50) (converted).

The subject of experiment [4] is C57BL mice on high-fat diet. The note with it: cited from earlier work.
A further experiment relates to bile duct-ligated mouse. The note with it: cited from earlier work.
The test system of another experiment is db/db mice. The settings on record: cited from earlier work.
The test system of a further experiment is ob/ob mice. The note with it: 30 mg/kg intraperitoneally, male ob/ob mice; cited from earlier work.
Experiment [5] has as its system mice on a lithogenic diet. The settings on record: cited from earlier work.
Where [6] appears, read: GW4064 100 mg/kg twice a day orally.

Entries after “also recorded” stand apart in the source; their conditions may differ.

As to `CC[C@H]1[C@@H](O)[C@@H]2[C@H](CC[C@]3(C)[C@@H]([C@H](C)CCC(=O)O)CC[C@@H]23)[C@@]2(C)CC[C@@H](O)C[C@@H]12` [Example 6EtCDCA, 6-ethyl-chenodeoxycholic acid], the hepatic fibrosis result in experiment [1] is “prevent development and promote resolution”. Moreover, in experiment [2], the “expression of α1(I)collagen” value is “decreased” and the “expression of α-smooth muscle actin” value is recorded as “decreased”.

With `CC(C)c1onc(-c2c(Cl)cccc2Cl)c1COc1ccc2c(ccn2C(=O)N2CC[C@H](C(=O)O)C2)c1` [Example 55, (3S)-1-{[5-({[3-(2,6-Dichlorophenyl)-5-(1-methylethyl)-4-isoxazolyl]methyl}oxy)-1H-indol-1-yl]carbonyl}-3-pyrrolidinecarboxylic acid], the EC50 in experiment [3] is 102 to 1000 nM.

Consider `CC(C)c1onc(-c2c(Cl)cccc2Cl)c1COc1ccc2[nH]c(-c3cccc(C(=O)O)c3)cc2c1` [Example 56, 3-[5-({[3-(2,6-Dichlorophenyl)-5-(1-methylethyl)-4-isoxazolyl]methyl}oxy)-1H-indol-2-yl]benzoic acid], for which, in experiment [3], the EC50 is 102 to 1000 nM.

For `CC(C)c1onc(-c2c(Cl)cccc2Cl)c1COc1ccc2c(c1)CC(c1cccc(C(=O)O)c1)C2` (stereo not shown) [Example 57, 3-[5-({[3-(2,6-Dichlorophenyl)-5-(1-methylethyl)-4-isoxazolyl]methyl}oxy)-2,3-dihydro-1H-inden-2-yl]benzoic acid], in experiment [3], the EC50 is 102 to 1000 nM.

Regarding `CC(C)c1onc(-c2c(Cl)cccc2Cl)c1COc1ccc2c(ccn2Cc2cccc(C(=O)O)c2)c1` [Example 59, 3-{[5-({[3-(2,6-Dichlorophenyl)-5-(1-methylethyl)-4-isoxazolyl]methyl}oxy)-1H-indol-1-yl]methyl}benzoic acid], the EC50 in experiment [3] is 102 to 1000 nM.

For the compound `CC(C)c1onc(-c2c(Cl)cccc2Cl)c1COc1ccc2c(c1)CCN(c1cccc(C(=O)O)c1)C2=O` [Example 60, 3-[6-({[3-(2,6-Dichlorophenyl)-5-(1-methylethyl)-4-isoxazolyl]methyl}oxy)-1-oxo-3,4-dihydro-2(1H)-isoquinolinyl]benzoic acid], the EC50 in experiment [3] was 102 to 1000 nM.

Turning to `CC(C)c1onc(-c2c(Cl)cccc2Cl)c1COc1ccc(/C=C/c2cccc(C(=O)O)c2)c(Cl)c1` [GW4064], the “body weight (high-fat diet induced body weight gain)” value in experiment [4] (GW4064 100 mg/kg twice a day orally, 100 mg/kg) was “decreased; also recorded: reduced”. Also, the glucose tolerance entry in experiment [4] (GW4064 100 mg/kg twice a day orally, GTT, 100 mg/kg) is “corrected glucose intolerance; also recorded: appeared to improve”. In addition, in experiment [4] (setting [6]), the liver triglyceride content result is on record as “reduced”, the serum glucose result is listed as “decreased”, the serum insulin entry is given as “decreased” and the serum triglyceride entry was “decreased”. Also, in experiment [4], the body fat mass entry is reported as “decreased” and the total cholesterol entry is reported as “decreased”. For the same compound, the “effect on translocation of bacteria in FXR null mice” value in the experiment with bile duct-ligated mouse (FXR null mice) is reported as “lost”. In the experiment on bile duct-ligated mouse (bile duct-ligated mouse), the bacterial overgrowth entry is “decreased”, the mucosal barrier entry is “improved” and the “translocation of bacteria to mesenteric lymph nodes” value is listed as “decreased”. In the experiment with db/db mice (db/db mice), the “glycogen storage in the liver” value was “enhanced” and the “insulin signalling in the liver” value is reported as “enhanced”. Also, in the experiment with db/db mice (diabetic db/db mice), the hyperglycemia entry was “significantly improved” and the hyperlipidemia result is reported as “significantly improved”. For the same compound, in the experiment with db/db mice (oral 30 mg/kg, bid, db/db mice), the NEFA result is listed as “decreased”, the blood glucose result is reported as “decreased”, the serum hydroxybutyrate result was “decreased” and the total cholesterol result is “decreased”. Further, the triglyceride entry in the experiment with db/db mice (oral 30 mg/kg, bid, db/db mice) is “decreased”. Further, in the experiment with ob/ob mice, the body weight result is reported as “did not alter”, the fasting blood glucose entry was “no effect”, the food intake entry is on record as “did not alter” and the glucose tolerance entry is recorded as “improved”. Also, in the experiment with ob/ob mice, the insulin concentration result is reported as “decreased” and the insulin sensitivity entry was “enhanced”. In addition, the “effect on cholesterol crystal formation in FXR null mice” value in experiment [5] (FXR null mice) was “lost”. The “formation of cholesterol crystals in the bile” value in experiment [5] (mice on a lithogenic diet) is “prevented”.
